Data on 25 compounds can be found in US20140005163A1 (NOVARTIS AG, priority 2010, published 2014).

What is called IC50 is the concentration needed to halve the response being measured.

A short description of data set [1]: Cellular CaCo2 permeability assay from apical to basal (A-B). Type of data set: in vitro ADME. As to conditions: human, Caco-2, read-out: Pe A-B (permeability). The source says:
The permeability in 10^−6 cm/s of compounds of formula (I) have been confirmed for selected example using a cellular CaCo2 permeability assay from apical to basal (A-B): […]
A general note: Caco-2 monolayers are a common model of the intestinal barrier.

Data set [2] concerns the target T1, PI3K gamma (Homo sapiens, UniProt P48736).
T1 construct: His tag (C); made in house; host or cells: baculovirus (pVL1393); Tn5 or TiniPro insect cells; construct from Roger Williams lab, MRC LMB
Briefly: PI3K gamma kinase assay (Kinase-Glo luminescence). Type of data set: biochemical. The essentials: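 Luminescent ATP-depletion (Kinase-Glo) assay with 150 nM PI3Kγ, 1 μM ATP and 10 μg/mL phosphatidylinositol in 10 mM Tris-HCl pH 7.5, 3 mM MgCl2, 50 mM NaCl, 0.05% CHAPS, 1 mM DTT; 120 min at room temperature. Eight-point dilutions; IC50 by four-parameter logistic fit.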

The test system of data set [3] is S6 Ribosomal Protein phosphorylation Ser235/236 in TSC1 null mouse embryo fibroblast (MEF) cells. As to the kind of experiment: Reverse protein array assay, S6 Ribosomal Protein phosphorylation Ser235/236 in TSC1 null MEF cells. In kind it is cell-based. As to conditions: 1 h, pS6 ribosomal protein Ser235/236, 60 minutes incubation, read-out: p-S6 IC50. The essentials:
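TSC1−/− MEFs, seeded and held ≥20 h at 37 °C/5% CO2, were exposed to 8-step serial compound dilutions (0.02% DMSO final; DMSO vehicle control) for 60 min at 37 °C. Cells were then lysed on ice for 10 min and lysates spotted onto reverse protein array chips.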

T1 sequence (P48736 144-1102 limits assumed): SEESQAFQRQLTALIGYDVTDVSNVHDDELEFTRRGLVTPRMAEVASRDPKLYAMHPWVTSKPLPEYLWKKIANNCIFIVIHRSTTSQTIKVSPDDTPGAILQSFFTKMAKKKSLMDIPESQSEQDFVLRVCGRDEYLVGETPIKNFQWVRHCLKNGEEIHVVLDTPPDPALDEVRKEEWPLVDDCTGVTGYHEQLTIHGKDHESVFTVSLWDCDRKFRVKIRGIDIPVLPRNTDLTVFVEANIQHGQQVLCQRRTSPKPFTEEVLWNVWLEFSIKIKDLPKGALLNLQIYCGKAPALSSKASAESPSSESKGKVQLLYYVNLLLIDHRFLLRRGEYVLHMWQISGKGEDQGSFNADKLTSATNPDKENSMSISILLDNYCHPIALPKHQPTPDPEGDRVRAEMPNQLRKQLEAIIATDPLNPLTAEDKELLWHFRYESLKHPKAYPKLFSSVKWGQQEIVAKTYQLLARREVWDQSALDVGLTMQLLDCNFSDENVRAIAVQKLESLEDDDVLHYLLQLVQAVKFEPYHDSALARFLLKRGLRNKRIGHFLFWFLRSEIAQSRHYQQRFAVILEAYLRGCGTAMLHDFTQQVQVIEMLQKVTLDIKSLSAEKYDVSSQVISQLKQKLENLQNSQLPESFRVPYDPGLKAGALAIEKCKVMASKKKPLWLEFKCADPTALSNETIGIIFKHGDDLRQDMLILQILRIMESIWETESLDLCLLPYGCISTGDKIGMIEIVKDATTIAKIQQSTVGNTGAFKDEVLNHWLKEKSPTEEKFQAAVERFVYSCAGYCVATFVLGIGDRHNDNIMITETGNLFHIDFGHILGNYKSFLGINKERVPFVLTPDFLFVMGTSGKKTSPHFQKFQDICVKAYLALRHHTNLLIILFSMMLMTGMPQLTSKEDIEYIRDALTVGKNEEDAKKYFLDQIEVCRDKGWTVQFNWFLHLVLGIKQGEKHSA

For the compound `CCOc1ccc(-c2ccc3ncc4c(c3c2)n(-c2cn(CC)nc2C)c(=O)n4C)cn1` [Example 3.5, 8-(6-Ethoxy-pyridin-3-yl)-1-(1-ethyl-3-methyl-1H-pyrazol-4-yl)-3-methyl-1,3-dihydro-imidazo[4,5-c]quinolin-2-one], the Papp A→B in data set [1] came to 31.2 ×10⁻⁶ cm/s. In addition, the IC50 was determined as 0.357 µM in data set [2] and 0.058 µM in data set [3].
In the same order, the values of `CCOc1cc(-c2ccc3ncc4c(c3c2)n(-c2cn(CC)nc2C)c(=O)n4C)ccc1OC` [Example 28.1, 8-(3-Ethoxy-4-methoxy-phenyl)-1-(1-ethyl-3-methyl-1H-pyrazol-4-yl)-3-methyl-1,3-dihydro-imidazo[4,5-c]quinolin-2-one] are 18.4 ×10⁻⁶ cm/s, 0.075 µM and under 0.005 µM.
As to `CCn1cc(-n2c(=O)n(C)c3cnc4ccc(-c5ccc(NC)nc5)cc4c32)c(C)n1` [Example 118.4, 1-(1-Ethyl-3-methyl-1H-pyrazol-4-yl)-3-methyl-8-(6-methylamino-pyridin-3-yl)-1,3-dihydro-imidazo[4,5-c]quinolin-2-one], the Papp A→B in data set [1] came out at 15.9 ×10⁻⁶ cm/s. In addition, the IC50 in data set [3] is 0.002 µM.
Consider `COc1ccc(-c2ccc3ncc4[nH]c(=O)n(-c5cn(C)nc5C)c4c3n2)cc1OC` [Example 249, 8-(3,4-dimethoxy-phenyl)-1-(1,3-dimethyl-1H-pyrazol-4-yl)-1,3-dihydro-1,3,5,9-tetraaza-cyclopenta[a]naphthalen-2-one], for which the Papp A→B in data set [1] was 22.1 ×10⁻⁶ cm/s. Besides, the IC50 in data set [2] was 0.125 µM; in data set [3], 0.002 µM.
In the same order, the values of `COc1ccc(-c2ccc3ncc4c(c3c2)n(-c2cn(C)nc2C)c(=O)n4C)cc1OC` [Example 1.8, 8-(3,4-Dimethoxy-phenyl)-1-(1,3-dimethyl-1H-pyrazol-4-yl)-3-methyl-1,3-dihydro-imidazo[4,5-c]quinolin-2-one] are 28.6 ×10⁻⁶ cm/s, 0.144 µM and under 0.005 µM.
Take `CCOc1ccc(-c2ccc3ncc4c(c3c2)n(-c2cn(CC)nc2C)c(=O)n4C)cc1OCC` [Example 27.1, 8-(3,4-Diethoxy-phenyl)-1-(1-ethyl-3-methyl-1H-pyrazol-4-yl)-3-methyl-1,3-dihydro-imidazo[4,5-c]quinolin-2-one]: the IC50 in data set [2] is 0.215 µM; in data set [3], 0.013 µM.
For `CCOc1ccc(-c2ccc3ncc4[nH]c(=O)n(-c5cn(C)nc5C)c4c3c2)cn1` [Example 110, 1-(1,3-Dimethyl-1H-pyrazol-4-yl)-8-(6-ethoxy-pyridin-3-yl)-1,3-dihydro-imidazo[4,5-c]quinolin-2-one], in that order: 0.337 µM and 0.078 µM.
Turning to `CCn1cc(-n2c(=O)n(C)c3cnc4ccc(-c5cnc(N(C)C)nc5)cc4c32)c(C)n1` [Example 6.4, 8-(2-Dimethylamino-pyrimidin-5-yl)-1-(1-ethyl-3-methyl-1H-pyrazol-4-yl)-3-methyl-1,3-dihydro-imidazo[4,5-c]quinolin-2-one], in data set [1], the Papp A→B was determined as 29.7 ×10⁻⁶ cm/s. Besides, the half-inhibitory concentration (IC50) in data set [3] is 0.01 µM.
As for `Cc1nn(C)cc1-n1c(=O)n(C)c2cnc3ccc(-c4ccccc4)cc3c21` [Example 37.1, 1-(1,3-Dimethyl-1H-pyrazol-4-yl)-3-methyl-8-phenyl-1,3-dihydro-imidazo[4,5-c]quinolin-2-one], the IC50 in data set [2] is 0.144 µM; in data set [3], 0.03 µM.
For `CCOc1ccc(-c2ccc3ncc4c(c3c2)n(-c2cn(C)nc2C)c(=O)n4C)cc1OC` [Example 29.3, 1-(1,3-Dimethyl-1H-pyrazol-4-yl)-8-(4-ethoxy-3-methoxy-phenyl)-3-methyl-1,3-dihydro-imidazo[4,5-c]quinolin-2-one], in that order: 0.169 µM and 0.004 µM.
In the same order, the values of `CCOc1cc(-c2ccc3ncc4c(c3c2)n(-c2cn(C)nc2C)c(=O)n4C)ccc1OC` [Example 28.3, 1-(1,3-Dimethyl-1H-pyrazo1-4-yl)-8-(3-ethoxy-4-methoxy-phenyl)-3-methyl-1,3-dihydro-imidazo[4,5-c]quinolin-2-one] are 0.194 µM and 0.002 µM.
For `Cc1nn(C)cc1-n1c(=O)n(C)c2cnc3ccc(-c4cccc(S(C)(=O)=O)c4)cc3c21` [Example 40, 1-(1,3-Dimethyl-1H-pyrazol-4-yl)-8-(3-methanesulfonyl-phenyl)-3-methyl-1,3-dihydro-imidazo[4,5-c]quinolin-2-one], in that order: 0.083 µM and 0.036 µM.
For the compound `Cc1nn(C)cc1-n1c(=O)n(C)c2cnc3ccc(-c4cccc(O)c4)cc3c21` [Example 32.1, 1-(1,3-Dimethyl-1H-pyrazol-4-yl)-8-(3-hydroxy-phenyl)-3-methyl-1,3-dihydro-imidazo[4,5-c]quinolin-2-one], the IC50 in data set [2] is 0.14 µM; in data set [3] it was 0.011 µM.
For `COc1ccc(-c2ccc3ncc4c(c3c2)n(-c2cn(C(C)C)nc2C)c(=O)n4C)cn1` [Example 2.8, 1-(1-Isopropyl-3-methyl-1H-pyrazol-4-yl)-8-(6-methoxy-pyridin-3-yl)-3-methyl-1,3-dihydro-imidazo[4,5-c]quinolin-2-one], in that order: 0.205 µM and 0.021 µM.
For `Cc1nn(C)cc1-n1c(=O)n(C)c2cnc3ccc(-c4ccc(OCCO)nc4)cc3c21` [Example 107, 1-(1,3-Dimethyl-1H-pyrazol-4-yl)-8-[6-(2-hydroxy-ethoxy)-pyridin-3-yl]-3-methyl-1,3-dihydro-imidazo[4,5-c]quinolin-2-one], in that order: 0.147 µM and 0.046 µM.
In the same order, the values of `Cc1nn(C)cc1-n1c(=O)n(C)c2cnc3ccc(-c4cccc5c4OC(F)(F)O5)cc3c21` [Example 35, 8-(2,2-Difluoro-benzo[1,3]dioxol-4-yl)-1-(1,3-dimethyl-1H-pyrazol-4-yl)-3-methyl-1,3-dihydro-imidazo[4,5-c]quinolin-2-one] are 0.113 µM and 0.002 µM.
Regarding `CCOc1ccc(-c2ccc3ncc4c(c3c2)n(-c2cnn(C)c2C)c(=O)n4C)cn1` [Example 3.6, 1-(1,5-Dimethyl-1H-pyrazol-4-yl)-8-(6-ethoxy-pyridin-3-yl)-3-methyl-1,3-dihydro-imidazo[4,5-c]quinolin-2-one], the IC50 in data set [2] stood at 0.182 µM; in data set [3], 0.015 µM.
As for `CNc1ccc(-c2ccc3ncc4c(c3c2)n(-c2cn(C)nc2C)c(=O)n4C)cn1` [Example 118.2, 1-(1,3-Dimethyl-1H-pyrazol-4-yl)-3-methyl-8-(6-methylamino-pyridin-3-yl)-1,3-dihydro-imidazo[4,5-c]quinolin-2-one], the results for the IC50 in data set [2] and in data set [3] were 0.279 µM and 0.001 µM, respectively.
In the same order, the values of `Cc1nn(C)cc1-n1c(=O)n(C)c2cnc3ccc(-c4cccc(S(=O)(=O)N(C)C)c4)cc3c21` [Example 53.1, 3-[1-(1,3-Dimethyl-1H-pyrazol-4-yl)-3-methyl-2-oxo-2,3-dihydro-1H-imidazo[4,5-c]quinolin-8-yl]-N,N-dimethyl-benzenesulfonamide] are 0.19 µM and 0.043 µM.
For `COCc1cncc(-c2ccc3ncc4c(c3c2)n(-c2cn(C)nc2C)c(=O)n4C)c1` [Example 54.1, 1-(1,3-Dimethyl-1H-pyrazol-4-yl)-8-(5-methoxymethyl-pyridin-3-yl)-3-methyl-1,3-dihydro-imidazo[4,5-c]quinolin-2-one], in that order: 0.157 µM and 0.005 µM.
For `Cc1nn(C)cc1-n1c(=O)n(C)c2cnc3ccc(-c4ccc(C(N)=O)cc4)cc3c21` [Example 41, 4-[1-(1,3-Dimethyl-1H-pyrazol-4-yl)-3-methyl-2-oxo-2,3-dihydro-1H-imidazo[4,5-c]quinolin-8-yl]-benzamide], in that order: 0.165 µM and 0.023 µM.
As for `Cc1nn(C)cc1-n1c(=O)n(C)c2cnc3ccc(-c4ccc5c(c4)CC(=O)N5)cc3c21` [Example 49, 1-(1,3-Dimethyl-1H-pyrazol-4-yl)-3-methyl-8-(2-oxo-2,3-dihydro-1H-indol-5-yl)-1,3-dihydro-imidazo[4,5-c]quinolin-2-one], the values for the IC50 in data set [2] and in data set [3] were 0.278 µM and 0.217 µM, respectively.
For `Cc1nn(C)cc1-n1c(=O)n(C)c2cnc3ccc(-c4cnc5c(c4)nnn5C)cc3c21` [Example 72, 1-(1,3-Dimethyl-1H-pyrazol-4-yl)-3-methyl-8-(3-methyl-3H-[1,2,3]triazolo[4,5-b]pyridin-6-yl)-1,3-dihydro-imidazo[4,5-c]quinolin-2-one], in that order: 0.341 µM and 0.058 µM.
On to `Cc1ncc(-c2ccc3ncc4c(c3c2)n(-c2cn(C)nc2C)c(=O)n4C)cc1OC(CF)CF` [Example 189, 1-(1,3-Dimethyl-1H-pyrazol-4-yl)-8-[5-(2-fluoro-1-fluoromethyl-ethoxy)-6-methyl-pyridin-3-yl]-3-methyl-1,3-dihydro-imidazo[4,5-c]quinolin-2-one], for which the Papp A→B in data set [1] came to 26.1 ×10⁻⁶ cm/s. Moreover, the IC50 in data set [3] was 0.001 µM.
Consider `COc1ccc(-c2ccc3ncc4c(c3n2)n(-c2cn(C)nc2C)c(=O)n4C)cc1OC` [Example 250, 8-(3,4-Dimethoxy-phenyl)-1-(1,3-dimethyl-1H-pyrazol-4-yl)-3-methyl-1,3-dihydro-1,3,5,9-tetraaza-cyclopenta[a]naphthalen-2-one], for which the IC50 stood at 0.185 µM in data set [2] and 0.013 µM in data set [3].
